Read-outs that look alike come from different tables or passages of the source.
How the values were obtained:
[1] = molecular target: T1, human BRD4 bromodomain II (Homo sapiens, UniProt O60885); test: Bromodomain binding assay (AlphaScreen), BRD4 BDII
T1 construct: human BRD4 bromodomain II [based on Genbank NM_058243, residues 349-460]; host or cells: E. coli
Procedure, shortened: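 E. coli-expressed N-terminal His6-tagged human BRD4 BDII (residues 349-460) or BDI (residues 44-170) was preincubated 30 min at room temperature with compound (10-point, 3-fold) in pH 7.5 HEPES buffer, 1% DMSO. Displacement of biotinylated tetra-acetylated H4 1-21 peptide was read by AlphaScreen, and IC50 came from curve fitting.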

[2] = system: human SKM-1 acute myeloid leukemia cells; test: SKM-1 antiproliferation cell-based assay (ATPlite); conditions: Homo sapiens
Procedure, shortened: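 Log-phase cells in RPMI 1640/15% FBS were seeded at 34722 cells/mL and exposed for 4 days to nine-concentration DMSO serial dilutions in triplicate. Viability was read as ATP luminescence (ATPlite 1step), and IC50 values came from variable-slope non-linear regression.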

[3] = AlphaScreen assay, Table C2, read-out: BRD4 BDII IC50
[4] = SKM-1, 96 h, SKM-1 antiproliferation assay, 4 days, Table C2
[5] = BRD4 BDII AlphaScreen assay, read-out: BRD4 BD2 IC50
[6] = SKM-1, SKM-1 antiproliferation assay

| Structure (SMILES) | IC50 [1, 3] [nM] | GI50 [2, 4] [nM] | IC50 [1, 5] [nM] | GI50 [2, 6] [nM] |
| --- | --- | --- | --- | --- |
| C[C@@H]1CN(c2cc(-c3cc(F)cc(-c4ccc(-n5ccn(C)c5=O)c(Cl)c4)c3O)ccn2)CCN1C [Example 493, (R)-1-(3-chloro-3′-(2-(3,4-dimethylpiperazin-1-yl)pyridin-4-yl)-5′-fluoro-2′-hydroxy-[1,1′-biphenyl]-4-yl)-3-methyl-1H-imidazol-2(3H)-one] | 0.01 to 1 | 0.3 to 30 |  |  |
| Cn1ccn(-c2ccc(-c3cc(F)cc(-c4ccnc(N5CCC6(CCN6)C5)c4)c3O)cc2Cl)c1=O (stereo not shown) [Example 641, 1-(3′-(2-(1,6-diazaspiro[3.4]octan-6-yl)pyridin-4-yl)-3-chloro-5′-fluoro-2′-hydroxy-[1,1′-biphenyl]-4-yl)-3-methyl-1H-imidazol-2(3H)-one] | 0.01 to 1 | 0.3 to 30 |  |  |
| Cn1nnn(-c2ccc(-c3cc(F)cc(-c4ccnc(N5CCNCC5)c4)c3O)cc2Cl)c1=O [Example 520, 1-(3-chloro-5′-fluoro-2′-hydroxy-3′-(2-(piperazin-1-yl)pyridin-4-yl)-[1,1′-biphenyl]-4-yl)-^4-methyl-1H-tetrazol-5(4H)-one] | 10 to 100 | 300 to 3000 |  |  |
| Cc1ncc(-c2cc(F)cc(-c3ccc(-n4ccn(C)c4=O)c(Cl)c3)c2O)cc1N1CC2(CC2)[C@](C)(O)C1 [Example 873] |  |  | 0.01 to 1 | 0.3 to 30 |
| O=C1OCCN1c1ccc(-c2cc(F)cc(-c3ccnc(N4CCNCC4)c3)c2O)cc1Cl [Example 371, 3-(3-chloro-5′-fluoro-2′-hydroxy-3′-(2-(piperazin-1-yl)pyridin-4-yl)-[1,1′-biphenyl]-4-yl)oxazolidin-2-one] | 10 to 100 | 300 to 3000 |  |  |
| Cc1cc(-c2ccc(-n3ccn(C)c3=O)c(Cl)c2)c(O)c(-c2ccnc(N3CC[C@@](C)(O)C3)c2)n1 [Example 996, (R)-1-(2-chloro-4-(3-hydroxy-2′-(3-hydroxy-3-methylpyrrolidin-1-yl)-6-methyl-[2,4′-bipyridin]-4-yl)phenyl)-3-methyl-1H-imidazol-2(3H)-one] |  |  | 1 to 10 | 0.3 to 30 |
| Cn1ccn(-c2ccc(-c3cc(F)cc(-c4cccc(N5CCN(C(C)(C)C)CC5)c4)c3O)cc2F)c1=O [Example 945, 1-(3″-(4-(tert-butyl)piperazin-1-yl)-3,5′-difluoro-2′-hydroxy-[1,1′:3′,1″-terphenyl]-4-yl)-3-methyl-1H-imidazol-2(3H)-one] |  |  | 1 to 10 | 0.3 to 30 |
| Cn1ccn(-c2ccc(-c3cc(F)cc(-c4cccc(C#CC(C)(C)N)c4)c3O)cc2Cl)c1=O [Example 771, 1-(3″-(3-amino-3-methylbut-1-yn-1-yl)-3-chloro-5′-fluoro-2′-hydroxy-[1,1′:3′,1″-terphenyl]-4-yl)-3-methyl-1H-imidazol-2(3H)-one] | 1 to 10 | 30 to 300 |  |  |
| Cn1ccn(-c2ccc(-c3cc(F)cc(-c4cc(N5CCNCC5)c5nccnc5c4)c3O)cc2Cl)c1=O [Example 547, 1-(3-chloro-5′-fluoro-2′-hydroxy-3′-(8-(piperazin-1-yl)quinoxalin-6-yl)-[1,1′-biphenyl]-4-yl)-^3-methyl-1H-imidazol-2(3H)-one] | 0.01 to 1 | 0.3 to 30 |  |  |
| CC(=O)Nc1ccc(-c2cccc(-c3ccc(C#N)c(N4CCNCC4)c3)c2O)cc1F [Example 236, N-(4″-cyano-3-fluoro-2′-hydroxy-3″-(piperazin-1-yl)-[1,1′:3′,1″-terphenyl]-4-yl)acetamide] | 1 to 10 | 30 to 300 |  |  |
| COc1ncc(-c2nccc(-c3ccc(-n4ccn(C)c4=O)c(Cl)c3)c2O)cc1N1CCN(C(C)(C)C)CC1 [Example 1005, 1-(4-(5′-(4-(tert-butyl)piperazin-1-yl)-3-hydroxy-6′-methoxy-[2,3′-bipyridin]-4-yl)-2-chlorophenyl)-3-methyl-1H-imidazol-2(3H)-one] |  |  | 1 to 10 | 0.3 to 30 |
| CC(C)N1CCN(c2cc(-c3cc(F)cc(-c4ccc(-n5ccn(C)c5=O)c(Cl)c4)c3O)cc3c2cnn3C)CC1 [Example 672, 1-(3-chloro-5′-fluoro-2′-hydroxy-3′-(4-(4-isopropylpiperazin-1-yl)-1-methyl-1H-indazol-6-yl)-[1,1′-biphenyl]-4-yl)-3-methyl-1H-imidazol-2(3H)-one] | 0.01 to 1 | 0.3 to 30 |  |  |
| COc1ncc(-c2nc(C)cc(-c3ccc(-n4ccn(C)c4=O)c(Cl)c3)c2O)cc1N1CC[C@@]2(CCN2C(C)C)C1 [Example 1023, (S)-1-(2-chloro-4-(3-hydroxy-5′-(1-isopropyl-1,6-diazaspiro[3.4]octan-6-yl)-6'-methoxy-6-methyl-[2,3′-bipyridin]-4-yl)phenyl)-3-methyl-1,3-dihydro-2H-imidazol-2-one] |  |  | 0.01 to 1 | 0.3 to 30 |
| CC[C@@H]1CN(c2cc(-c3cc(F)cc(-c4ccc(-n5ccn(C)c5=O)c(Cl)c4)c3O)cc3[nH]ncc23)CCN1 [Example 594, (R)-1-(3-chloro-3′-(4-(3-ethylpiperazin-1-yl)-1H-indazol-6-yl)-5′-fluoro-2′-hydroxy-[1,1′-biphenyl]-4-yl)-3-methyl-1H-imidazol-2(3H)-one] | 0.01 to 1 | 0.3 to 30 |  |  |
| COCCC1CN(c2cc(-c3cc(F)cc(-c4ccc(-n5ccn(C)c5=O)c(Cl)c4)c3O)ccn2)CCN1 (stereo not shown) [Example 676, 1-(3-chloro-5′-fluoro-2′-hydroxy-3′-(2-(3-(2-methoxyethyl)piperazin-1-yl)pyridin-4-yl)-[1,1′-biphenyl]-4-yl)-3-methyl-1H-imidazol-2(3H)-one] | 0.01 to 1 | 0.3 to 30 |  |  |
| CNc1ncc(-c2cc(F)cc(-c3ccc(-n4ccn(C)c4=O)c(Cl)c3)c2O)cc1N1CCC2(CCN2C(C)C)C1 (stereo not shown) [Example 965, 1-{3-Chloro-5′-fluoro-2′-hydroxy-3′-[5-(1-isopropyl-1,6-diaza-spiro[3.4]oct-6-yl)-6-methylamino-pyridin-3-yl]-biphenyl-4-yl}-3-methyl-1,3-dihydro-imidazol-2-one] |  |  | 1 to 10 | 0.3 to 30 |
| Cc1cc(-c2ccc(-n3ccn(C)c3=O)c(Cl)c2)c(O)c(-c2cc(N3CCNCC3)c3nn[nH]c3c2)c1 [Example 565] | 0.01 to 1 | 0.3 to 30 |  |  |
| CN1CCN(c2ccc(-c3cc(F)cc(-c4cc(N5CCNCC5)c5cc[nH]c5c4)c3O)cc2Cl)C1=O [Example 460, 1-(3-chloro-5′-fluoro-2′-hydroxy-3′-(4-(piperazin-1-yl)-1H-indol-6-yl)-[1,1′-biphenyl]-4-yl)-3-methylimidazolidin-2-one] | 1 to 10 | 0.3 to 30 |  |  |
| [2H]C([2H])([2H])n1ccn(-c2ccc(-c3cc(F)cc(-c4ccnc(N5CC6(CNC6)C5)c4)c3O)cc2Cl)c1=O [Example 492, 1-(3′-(2-(2,6-diazaspiro[3.3]heptan-2-yl)pyridin-4-yl)-3-chloro-5′-fluoro-2′-hydroxy-[1,1′-biphenyl]-4-yl)-3-deuteromethyl-1H-imidazol-2(3H)-one] | 1 to 10 | 30 to 300 |  |  |
| CN(C)[C@H]1CCN(c2cncc(-c3cc(F)cc(-c4ccc(-n5ccn(C)c5=O)c(Cl)c4)c3O)c2)C1 [Example 475, (S)-1-(3-chloro-3′-(5-(3-(dimethylamino)pyrrolidin-1-yl)pyridin-3-yl)-5′-fluoro-2′-hydroxy-[1,1′-biphenyl]-4-yl)-3-methyl-1H-imidazol-2(3H)-one] | 0.01 to 1 | 0.3 to 30 |  |  |
| Cc1cc(-c2cc(F)cc(-c3ccc(-n4ccn(C)c4=O)c(Cl)c3)c2O)cc(N2CCN(C(C)(C)C)CC2)c1 [Example 828, 1-(3″-(4-(tert-butyl)piperazin-1-yl)-3-chloro-5′-fluoro-2′-hydroxy-5″-methyl-[1,1′:3′,1″-terphenyl]-4-yl)-3-methyl-1H-imidazol-2(3H)-one] | 0.01 to 1 | 0.3 to 30 |  |  |
| Cc1cc(-c2ccc(-n3ccn(C)c3=O)c(Cl)c2)c(O)c(-c2cnc(N)c(N3CCN(C(C)(C)C)CC3)c2)n1 [Example 962, 1-(4-(6′-amino-5′-(4-(tert-butyl)piperazin-1-yl)-3-hydroxy-6-methyl-[2,3′-bipyridin]-4-yl)-2-chlorophenyl)-3-methyl-1H-imidazol-2(3H)-one] |  |  | 1 to 10 | 0.3 to 30 |
| Cc1cc(-c2ccc(-n3ccn(C)c3=O)c(Cl)c2)c(O)c(-c2cnc(N(C)C)c(N3CCN(C(C)(C)C)CC3)c2)n1 [Example 964, 1-(4-(5′-(4-(tert-butyl)piperazin-1-yl)-6′-(dimethylamino)-3-hydroxy-6-methyl-[2,3′-bipyridin]-4-yl)-2-chlorophenyl)-3-methyl-1H-imidazol-2(3H)-one] |  |  | 0.01 to 1 | 0.3 to 30 |
| CC(=O)N[C@@]1(C)CCN(c2cc(-c3cc(F)cc(-c4ccc(-n5ccn(C)c5=O)c(Cl)c4)c3O)cc(=O)n2C)C1 [Example 774, (S)-N-(1-(4-(3′-chloro-5-fluoro-2-hydroxy-4′-(3-methyl-2-oxo-2,3-dihydro-1H-imidazol-1-yl)-[1,1′-biphenyl]-3-yl)-1-methyl-6-oxo-1,6-dihydropyridin-2-yl)-3-methylpyrrolidin-3-yl)acetamide] | 1 to 10 | 30 to 300 |  |  |
| Cn1ccn(-c2ccc(-c3cc(F)cc(-c4cc(N5CC[C@H](N)C5)c5nn[nH]c5c4)c3O)cc2Cl)c1=O [Example 537, (S)-1-(3′-(4-(3-aminopyrrolidin-1-yl)-1H-benzo[d][1,2,3]triazol-6-yl)-3-chloro-5′-fluoro-2′-hydroxy-[1,1′-biphenyl]-4-yl)-3-methyl-1H-imidazol-2(3H)-one] | 1 to 10 | 30 to 300 |  |  |
| Cn1ccn(-c2ccc(-c3cc(F)cc(-c4cc(-c5cn[nH]c5)cc(N5CCNCC5)c4)c3O)cc2Cl)c1=O [Example 571] | 1 to 10 | 0.3 to 30 |  |  |
